In assay [1] the target is T1, L1196M mutant ALK kinase (Homo sapiens, UniProt Q9UM73, L1196M).
T1 construct: purchased Sino-US Crown Bioscience, Inc. batch number ALKm_20110923
As to the kind of experiment: HTRF KinEASE-TK assay, inhibitory activity on L1196M mutant ALK kinase. The format is biochemical. To be noted: L1196M mutant ALK 1 ng/μl, substrate 1 μM, ATP 5 μM, 30° C. 35 minutes, read-out: Inhibition on ALK kinases (L1196M mutant), IC50. The procedure, abridged: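 HTRF TK assay: mutant kinase 1 ng/μl, substrate 1 μM, ATP 5 μM, 5 mM MgCl2, 1 mM DTT, 1% DMSO, 35 min at 30 °C. 665/615 ratio read; inhibition normalised to no-compound and 10.4 μM LDK-378 controls; IC50 from curve fit.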

Assay [2] has as its system NCI-H2228 cell line. The assay can be described thus: CellTiter-Glo cell proliferation inhibition on NCI-H2228 cell line. Particulars: Homo sapiens, NCI-H2228, 96 h, NCI-H2228 cells, 5000 cells/well, 4 days drug treatment. The format is cell-based. In short, it runs like this: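 NCI-H2228 cells, 5000/well in RPMI-1640 + 10% FBS, treated with compounds 2 h after seeding (0.5% DMSO final) for 4 days at 37° C. Viability by CellTiter-Glo luminescence; inhibition relative to DMSO control, IC50 from curve fit.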
On the technique in general: In ATP-based viability assays light output follows the ATP content of the culture.

SMILES strings stand for the structures.

T1 sequence (Q9UM73 19-1620 L1196M): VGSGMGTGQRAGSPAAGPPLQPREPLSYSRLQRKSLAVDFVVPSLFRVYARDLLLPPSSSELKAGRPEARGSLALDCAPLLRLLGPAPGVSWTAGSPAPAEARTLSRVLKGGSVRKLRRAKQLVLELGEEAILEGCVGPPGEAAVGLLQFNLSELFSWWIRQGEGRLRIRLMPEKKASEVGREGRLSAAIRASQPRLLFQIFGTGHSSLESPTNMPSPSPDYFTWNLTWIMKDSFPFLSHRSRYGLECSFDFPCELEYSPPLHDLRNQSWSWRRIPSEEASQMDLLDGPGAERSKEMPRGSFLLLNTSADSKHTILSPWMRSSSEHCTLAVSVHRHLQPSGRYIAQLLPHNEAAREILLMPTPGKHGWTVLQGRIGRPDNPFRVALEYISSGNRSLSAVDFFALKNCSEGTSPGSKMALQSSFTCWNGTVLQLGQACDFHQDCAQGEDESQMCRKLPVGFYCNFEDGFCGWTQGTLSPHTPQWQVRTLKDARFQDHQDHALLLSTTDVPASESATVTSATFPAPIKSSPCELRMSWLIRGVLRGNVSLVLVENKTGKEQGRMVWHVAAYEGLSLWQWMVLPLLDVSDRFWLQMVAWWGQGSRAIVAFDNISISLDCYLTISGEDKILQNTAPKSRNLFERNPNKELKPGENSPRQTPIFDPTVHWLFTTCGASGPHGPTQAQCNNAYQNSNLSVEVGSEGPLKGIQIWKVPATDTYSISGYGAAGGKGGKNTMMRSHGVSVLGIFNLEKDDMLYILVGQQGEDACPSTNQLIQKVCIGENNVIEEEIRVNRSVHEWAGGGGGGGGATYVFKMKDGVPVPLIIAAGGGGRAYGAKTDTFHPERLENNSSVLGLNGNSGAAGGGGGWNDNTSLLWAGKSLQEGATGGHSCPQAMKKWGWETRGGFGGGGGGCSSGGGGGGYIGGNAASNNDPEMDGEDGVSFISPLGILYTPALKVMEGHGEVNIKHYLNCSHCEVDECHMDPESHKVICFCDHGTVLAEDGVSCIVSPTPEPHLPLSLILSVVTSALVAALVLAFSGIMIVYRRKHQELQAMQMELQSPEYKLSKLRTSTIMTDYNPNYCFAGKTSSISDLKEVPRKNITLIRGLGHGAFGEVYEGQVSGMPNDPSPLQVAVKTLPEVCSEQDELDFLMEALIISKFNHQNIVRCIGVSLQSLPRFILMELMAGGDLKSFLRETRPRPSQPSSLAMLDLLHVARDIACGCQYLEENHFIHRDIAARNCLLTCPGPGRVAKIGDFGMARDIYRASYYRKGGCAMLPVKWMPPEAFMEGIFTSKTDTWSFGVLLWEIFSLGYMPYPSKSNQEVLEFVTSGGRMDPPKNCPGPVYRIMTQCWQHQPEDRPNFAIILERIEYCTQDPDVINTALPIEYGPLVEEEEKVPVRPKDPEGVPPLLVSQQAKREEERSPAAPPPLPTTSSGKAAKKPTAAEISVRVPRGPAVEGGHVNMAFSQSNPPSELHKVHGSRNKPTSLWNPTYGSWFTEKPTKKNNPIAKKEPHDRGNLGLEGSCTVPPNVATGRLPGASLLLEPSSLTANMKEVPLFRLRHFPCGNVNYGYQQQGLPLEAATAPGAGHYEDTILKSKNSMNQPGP

Consider `Cc1cc(Nc2ncc(Cl)c(Nc3cn(C)nc3S(=O)(=O)CC(C)C)n2)c(OC2CC2)cc1C1CCN(C)CC1` [Final product 57], for which the IC50 in assay [1] is 0.011 µM; in assay [2], 0.108 µM.

Take `COCC1CC(c2cc(OC3CC3)c(Nc3ncc(Cl)c(Nc4cn(C)nc4S(=O)(=O)C(C)C)n3)cc2C)CCN1C` (stereo not shown) [Final product 77]: the IC50 in assay [1] came to 0.004 µM; in assay [2] it was 0.025 µM.

With `Cc1cc(Nc2ncc(Cl)c(Nc3cn(C)nc3S(=O)(=O)C(C)C)n2)c(OC2CC2)cc1C1CCN(C)C1` (stereo not shown) [Final product 53], the half-maximal inhibitory concentration (IC50) in assay [1] came out at 0.004 µM; in assay [2] it was 0.133 µM.

Consider `Cc1cc(Nc2ncc(Cl)c(Nc3cn(C)nc3S(=O)(=O)C(C)C)n2)c(OC(C)C)cc1C1CCNCC1` [Final product 2], for which the values for the IC50 in assay [1] and in assay [2] were 0.016 µM and 0.198 µM, respectively.

For the compound `Cc1cc(Nc2ncc(Cl)c(Nc3cn(C)nc3S(=O)(=O)C(C)C)n2)c(OC(C)C)cc1C1CCNC1` (stereo not shown) [Final product 3], the IC50 in assay [1] is 0.005 µM; in assay [2] it was 0.364 µM.

Turning to `CC(C)Oc1cc(C2CCNCC2)ccc1Nc1ncc(Cl)c(Nc2cn(C)nc2S(=O)(=O)C(C)C)n1` [Final product 1, 5-chloro-N^2-[2-isopropoxy-4-(piperidin-4-yl)phenyl]-N^4-(3-isopropylsulfonyl-1-methyl-1H-pyrazol-4-yl)pyrimidin-2,4-diamine], the 50% inhibitory concentration (IC50) in assay [1] turned out to be 0.008 µM; in assay [2], 0.184 µM.

Consider `Cc1cc(Nc2ncc(Cl)c(Nc3cn(C)nc3S(=O)(=O)C(C)C)n2)c(OC2CC2)cc1C1CCN(C)CC1(F)F` (stereo not shown) [Final product 88], for which the concentration for half-maximal inhibition (IC50) is 0.015 µM in assay [1] and 0.072 µM in assay [2].

Regarding `Cc1cc(Nc2ncc(Cl)c(Nc3cn(C)nc3S(=O)(=O)C(C)C)n2)c(OC2CC2)cc1C1CCC(NS(C)(=O)=O)CC1` (stereo not shown) [Final product 205, N-(4-(4-(5-chloro-4-(3-(isopropylsulfonyl)-1-methyl-1H-pyrazol-4-amine)pyrimidin-2-amine)-5-cyclopropoxy-2-methylphenyl)cyclohexyl)methanesulfonamide], the IC50 in assay [1] came out at 0.02 µM; in assay [2] it was 0.151 µM.

For `Cc1cc(Nc2ncc(Cl)c(Nc3cn(C)nc3S(=O)(=O)C(C)C)n2)c(OC2CC2)cc1C1CN(C)C1` [Final product 54], the values for the IC50 in assay [1] and in assay [2] were 0.005 µM and 0.018 µM, respectively.

`COCC1CC(c2cc(OC3CC3)c(Nc3ncc(Cl)c(Nc4cn(C)nc4S(=O)(=O)CC(C)C)n3)cc2C)CCN1C` (stereo not shown) [Final product 79]: the IC50 in assay [1] stood at 0.008 µM; in assay [2] it was 0.062 µM.

Take `Cc1cc(Nc2ncc(Cl)c(Nc3cn(C4CC4)nc3S(=O)(=O)C(C)C)n2)c(OC2CC2)cc1C1CCN(C)CC1` [Final product 56]: the IC50 turned out to be 0.011 µM in assay [1] and 0.142 µM in assay [2].

Turning to `Cc1cc(Nc2ncc(Cl)c(Nc3cn(C)nc3S(=O)(=O)CC(C)C)n2)c(OC2CC2)cc1C1CN(C)C1` [Final product 55], the results for the IC50 in assay [1] and in assay [2] were 0.008 µM and 0.181 µM, respectively.

`Cc1cc(Nc2ncc(Cl)c(Nc3cn(C)nc3S(=O)(=O)C(C)C)n2)c(OC2CC2)cc1C1CCN(C)CC1C` (stereo not shown) [Final product 90]: the IC50 in assay [1] turned out to be 0.004 µM; in assay [2], 0.045 µM.

As to `COC1CN(C)CCC1c1cc(OC2CC2)c(Nc2ncc(Cl)c(Nc3cn(C)nc3S(=O)(=O)C(C)C)n2)cc1C` (stereo not shown) [Final product 58], the IC50 in assay [1] stood at 0.006 µM; in assay [2], 0.055 µM.

On to `Cc1cc(Nc2ncc(Cl)c(Nc3cn(C)nc3S(=O)(=O)C(C)C)n2)c(OC2CC2)cc1C1CCN(C)CC1F` (stereo not shown) [Final product 87], for which the IC50 in assay [1] turned out to be 0.01 µM; in assay [2], 0.113 µM.

As to `COCCN1CCC(c2cc(OC3CC3)c(Nc3ncc(Cl)c(Nc4cn(C)nc4S(=O)(=O)C(C)C)n3)cc2C)CC1` [Final product 82], the figures for the IC50 in assay [1] and in assay [2] were 0.007 µM and 0.043 µM, respectively.

On to `Cc1cc(Nc2ncc(Cl)c(Nc3cn(C4CC4)nc3S(=O)(=O)C(C)C)n2)c(OC(C)C)cc1C1CCN(C)CC1` [Final product 81], for which the results for the IC50 in assay [1] and in assay [2] were 0.025 µM and 0.19 µM, respectively.

As a reminder, the IC50 is the point on the concentration scale where inhibition reaches its midpoint.
